Assay results: US4068070A, “α-Cyanoamine compounds and a process for producing the same” (Fuji Chemical Industry Co., Ltd., priority 1974, dated 1978)

Tests used:
Assay type in all cases: in vivo, mongrel adult dogs
coronary sinus out flow = test: Effects on coronary sinus out flow
In short: (§1)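 Readouts: aortic pressure by transducer through carotid cannula, aortic root flow electromagnetically, coronary sinus flow and oxygen tension through Morawitz cannulation. Subjects were anesthetized (pentobarbital) open-chest adult mongrel dogs of either sex given intravenous test compound or active placebo.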

aortic blood flow = test: Effects on aortic blood flow
In short: as §1

[1] = system: coronary sinus oxygen tension; test: Effects on coronary sinus oxygen tension
In short: as §1

heart rate = test: Effects on heart rate
In short: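 Adult mongrel dogs of both sexes were anesthetized with pentobarbital and thoracotomized. Test agents, suspended or dissolved in 0.2% CMC, pH 6 HCl solution or saline, were injected intravenously into the brachial vein. Hemodynamic and coronary sinus parameters were then recorded.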

[2] = system: arterial mean blood pressure; test: Effects on arterial mean blood pressure
In short: as §1

Q: Which “Changes(%) of basal values, coronary sinus out flow” value (coronary sinus out flow; 2.0 mg/kg i.v., 1 min) does the source give for COc1ccc(C(C#N)N2CCNCC2)cc1OC (stereo not shown) [Compound F] here?
A: +2.9%

Q: What about the “Changes(%) of basal values, coronary sinus out flow” value (coronary sinus out flow; 2.0 mg/kg i.v., 5 min) of the same compound?
A: -1.7%

Q: And the “Changes(%) of basal values, coronary sinus out flow” value (coronary sinus out flow; 2.0 mg/kg i.v., 10 min)?
A: -4.4%

Q: And the “Changes(%) of basal values, coronary sinus out flow” value (coronary sinus out flow; 2.0 mg/kg i.v., 20 min)?
A: -3.1%

Q: And the “Changes(%) of basal values, coronary sinus out flow” value (coronary sinus out flow; 2.0 mg/kg i.v., 30 min)?
A: -1.0%

Q: What about the “Changes(%) of basal values, coronary sinus out flow” value (coronary sinus out flow; 2.0 mg/kg i.v., 40 min) of the same compound?
A: -0.2%

Q: And the “Changes(%) of basal values, coronary sinus out flow” value (coronary sinus out flow; 2.0 mg/kg i.v., imm.)?
A: +12.4%

Q: What about the “Changes(%) of basal values, coronary sinus out flow” value (coronary sinus out flow; 6.0 mg/kg i.v., 1 min) of the same compound?
A: +68.6%

Q: And the “Changes(%) of basal values, coronary sinus out flow” value (coronary sinus out flow; 6.0 mg/kg i.v., 5 min)?
A: +7.4%

Q: What about the “Changes(%) of basal values, coronary sinus out flow” value (coronary sinus out flow; 6.0 mg/kg i.v., 10 min) of the same compound?
A: +0.1%

Q: What about the “Changes(%) of basal values, coronary sinus out flow” value (coronary sinus out flow; 6.0 mg/kg i.v., 20 min) of the same compound?
A: -8.2%

Q: And the “Changes(%) of basal values, coronary sinus out flow” value (coronary sinus out flow; 6.0 mg/kg i.v., 30 min)?
A: -5.3%

Q: And the “Changes(%) of basal values, coronary sinus out flow” value (coronary sinus out flow; 6.0 mg/kg i.v., 40 min)?
A: -2.1%

Q: And the “Changes(%) of basal values, coronary sinus out flow” value (coronary sinus out flow; 6.0 mg/kg i.v., imm.)?
A: +74.5%

Q: What about the “Effects on coronary sinus out flow (in words)” value (coronary sinus out flow; i.v., anesthetized dogs) of the same compound?
A: increased markedly coronary sinus out flow immediately after administration, effect of which was, however, relatively transitory

Q: What about the “Changes (%) of basal values, aortic blood flow” value (shortened to “Changes (%) … aortic blood flow”) (aortic blood flow; 2.0 mg/kg i.v., 1 min) of the same compound?
A: +0.7%

Q: What about the “Changes (%) … aortic blood flow” value (aortic blood flow; 2.0 mg/kg i.v., 5 min) of the same compound?
A: -4.1%

Q: What about the “Changes (%) … aortic blood flow” value (aortic blood flow; 2.0 mg/kg i.v., 10 min) of the same compound?
A: -1.2%

Q: What about the “Changes (%) … aortic blood flow” value (aortic blood flow; 2.0 mg/kg i.v., 20 min) of the same compound?
A: 0%

Q: And the “Changes (%) … aortic blood flow” value (aortic blood flow; 2.0 mg/kg i.v., 30 min)?
A: 0%

Q: And the “Changes (%) … aortic blood flow” value (aortic blood flow; 2.0 mg/kg i.v., 40 min)?
A: 0%

Q: What about the “Changes (%) … aortic blood flow” value (aortic blood flow; 2.0 mg/kg i.v., imm.) of the same compound?
A: +9.2%

Q: And the “Changes (%) … aortic blood flow” value (aortic blood flow; 6.0 mg/kg i.v., 1 min)?
A: +12.1%

Q: What about the “Changes (%) … aortic blood flow” value (aortic blood flow; 6.0 mg/kg i.v., 5 min) of the same compound?
A: -2.2%

Q: What about the “Changes (%) … aortic blood flow” value (aortic blood flow; 6.0 mg/kg i.v., 10 min) of the same compound?
A: -2.0%

Q: And the “Changes (%) … aortic blood flow” value (aortic blood flow; 6.0 mg/kg i.v., 20 min)?
A: -1.2%

Q: And the “Changes (%) … aortic blood flow” value (aortic blood flow; 6.0 mg/kg i.v., 30 min)?
A: 0%

Q: What about the “Changes (%) … aortic blood flow” value (aortic blood flow; 6.0 mg/kg i.v., 40 min) of the same compound?
A: 0%

Q: What about the “Changes (%) … aortic blood flow” value (aortic blood flow; 6.0 mg/kg i.v., imm.) of the same compound?
A: +20.5%

Q: And the “Effects on aortic blood flow (in words)” value (aortic blood flow; i.v., anesthetized dogs)?
A: an increase in blood flow immediately after administration, followed by a decrease in blood flow

Q: And the “Changes(%) of basal values, coronary sinus oxygen tension” value ([1]; 2.0 mg/kg i.v., 1 min)?
A: +1.4%

Q: What about the “Changes(%) of basal values, coronary sinus oxygen tension” value ([1]; 2.0 mg/kg i.v., 5 min) of the same compound?
A: -1.1%

Q: What about the “Changes(%) of basal values, coronary sinus oxygen tension” value ([1]; 2.0 mg/kg i.v., 10 min) of the same compound?
A: -1.4%

Q: What about the “Changes(%) of basal values, coronary sinus oxygen tension” value ([1]; 2.0 mg/kg i.v., 20 min) of the same compound?
A: -0.8%

Q: What about the “Changes(%) of basal values, coronary sinus oxygen tension” value ([1]; 2.0 mg/kg i.v., 30 min) of the same compound?
A: 0%

Q: What about the “Changes(%) of basal values, coronary sinus oxygen tension” value ([1]; 2.0 mg/kg i.v., 40 min) of the same compound?
A: 0%

Q: And the “Changes(%) of basal values, coronary sinus oxygen tension” value ([1]; 2.0 mg/kg i.v., imm.)?
A: +10.9%

Q: What about the “Changes(%) of basal values, coronary sinus oxygen tension” value ([1]; 6.0 mg/kg i.v., 1 min) of the same compound?
A: +20.3%

Q: And the “Changes(%) of basal values, coronary sinus oxygen tension” value ([1]; 6.0 mg/kg i.v., 5 min)?
A: +3.9%

Q: What about the “Changes(%) of basal values, coronary sinus oxygen tension” value ([1]; 6.0 mg/kg i.v., 10 min) of the same compound?
A: +1.0%

Q: And the “Changes(%) of basal values, coronary sinus oxygen tension” value ([1]; 6.0 mg/kg i.v., 20 min)?
A: -4.1%

Q: And the “Changes(%) of basal values, coronary sinus oxygen tension” value ([1]; 6.0 mg/kg i.v., 30 min)?
A: -1.2%

Q: What about the “Changes(%) of basal values, coronary sinus oxygen tension” value ([1]; 6.0 mg/kg i.v., 40 min) of the same compound?
A: -0.3%

Q: And the “Changes(%) of basal values, coronary sinus oxygen tension” value ([1]; 6.0 mg/kg i.v., imm.)?
A: +20.1%

Q: What about the “Effects on coronary sinus oxygen tension (in words)” value ([1]; i.v., anesthetized dogs) of the same compound?
A: slightly transitory as compared with those of compounds as mentioned above

Q: What about the increased oxygen tension ([1]; i.v., anesthetized dogs) of the same compound?
A: about 20%

Q: And the “Changes(%) of basal values, heart rate” value (heart rate; 2.0 mg/kg i.v., 1 min)?
A: +2.6%

Q: And the “Changes(%) of basal values, heart rate” value (heart rate; 2.0 mg/kg i.v., 5 min)?
A: -1.5%

Q: And the “Changes(%) of basal values, heart rate” value (heart rate; 2.0 mg/kg i.v., 10 min)?
A: -2.3%

Q: And the “Changes(%) of basal values, heart rate” value (heart rate; 2.0 mg/kg i.v., 20 min)?
A: -1.8%

Q: What about the “Changes(%) of basal values, heart rate” value (heart rate; 2.0 mg/kg i.v., 30 min) of the same compound?
A: -0.7%

Q: What about the “Changes(%) of basal values, heart rate” value (heart rate; 2.0 mg/kg i.v., 40 min) of the same compound?
A: 0%

Q: What about the “Changes(%) of basal values, heart rate” value (heart rate; 2.0 mg/kg i.v., imm.) of the same compound?
A: +1.4%

Q: And the “Changes(%) of basal values, heart rate” value (heart rate; 6.0 mg/kg i.v., 1 min)?
A: +3.7%

Q: And the “Changes(%) of basal values, heart rate” value (heart rate; 6.0 mg/kg i.v., 5 min)?
A: -2.2%

Q: And the “Changes(%) of basal values, heart rate” value (heart rate; 6.0 mg/kg i.v., 10 min)?
A: -3.6%

Q: And the “Changes(%) of basal values, heart rate” value (heart rate; 6.0 mg/kg i.v., 20 min)?
A: -3.3%

Q: And the “Changes(%) of basal values, heart rate” value (heart rate; 6.0 mg/kg i.v., 30 min)?
A: -2.0%

Q: And the “Changes(%) of basal values, heart rate” value (heart rate; 6.0 mg/kg i.v., 40 min)?
A: -1.4%

Q: What about the “Changes(%) of basal values, heart rate” value (heart rate; 6.0 mg/kg i.v., imm.) of the same compound?
A: -7.2%

Q: What about the “Effects on heart rate (in words)” value (heart rate; i.v., anesthetized dogs) of the same compound?
A: slight negative chronotropic effects accompanied by an increase in heart rate immediately after administration

Q: What about the “Changes (%) of basal values, arterial mean blood pressure” value ([2]; 2.0 mg/kg i.v., 1 min) of the same compound?
A: -1.3%

Q: What about the “Changes (%) of basal values, arterial mean blood pressure” value ([2]; 2.0 mg/kg i.v., 5 min) of the same compound?
A: -4.9%

Q: What about the “Changes (%) of basal values, arterial mean blood pressure” value ([2]; 2.0 mg/kg i.v., 10 min) of the same compound?
A: -3.3%

Q: And the “Changes (%) of basal values, arterial mean blood pressure” value ([2]; 2.0 mg/kg i.v., 20 min)?
A: -2.1%

Q: What about the “Changes (%) of basal values, arterial mean blood pressure” value ([2]; 2.0 mg/kg i.v., 30 min) of the same compound?
A: -0.4%

Q: What about the “Changes (%) of basal values, arterial mean blood pressure” value ([2]; 2.0 mg/kg i.v., 40 min) of the same compound?
A: 0%

Q: And the “Changes (%) of basal values, arterial mean blood pressure” value ([2]; 2.0 mg/kg i.v., imm.)?
A: +2.3%

Q: What about the “Changes (%) of basal values, arterial mean blood pressure” value ([2]; 6.0 mg/kg i.v., 1 min) of the same compound?
A: +15.8%

Q: And the “Changes (%) of basal values, arterial mean blood pressure” value ([2]; 6.0 mg/kg i.v., 5 min)?
A: -9.3%

Q: What about the “Changes (%) of basal values, arterial mean blood pressure” value ([2]; 6.0 mg/kg i.v., 10 min) of the same compound?
A: -12.5%

Q: And the “Changes (%) of basal values, arterial mean blood pressure” value ([2]; 6.0 mg/kg i.v., 20 min)?
A: -10.0%

Q: What about the “Changes (%) of basal values, arterial mean blood pressure” value ([2]; 6.0 mg/kg i.v., 30 min) of the same compound?
A: -5.2%

Q: And the “Changes (%) of basal values, arterial mean blood pressure” value ([2]; 6.0 mg/kg i.v., 40 min)?
A: -2.8%

Q: And the “Changes (%) of basal values, arterial mean blood pressure” value ([2]; 6.0 mg/kg i.v., imm.)?
A: +16.0%

Q: What about the “Effects on arterial mean blood pressure (in words)” value ([2]; i.v., anesthetized dogs) of the same compound?
A: an increase in blood pressure was observed immediately after administration, but thereafter, a long duration hypotensive effect was observed
